Source: PubChem BioAssay (NCI)
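Following 48 hours of exposure in 96-well plates, responses at five concentrations were used to interpolate endpoints linearly. Here, GI50 denotes the concentration required for 50% inhibition of growth. The concentration for full growth arrest is given as TGI.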

Legend:
Test in all cases: NCI anticancer screen, dose series, 48 h
[1] = test system: ACHN renal
[2] = test system: NCI/ADR-RES ovarian
[3] = test system: HS 578T breast
[4] = test system: SF-539 CNS
[5] = test system: MDA-MB-231 breast
[6] = test system: RXF 393 renal
[7] = test system: DU-145 prostate
[8] = test system: SR leukemia
[9] = test system: NCI-H226 lung
[10] = test system: SNB-19 CNS

Row | SMILES | GI50 [1] | TGI [1] | GI50 [2] | TGI [2] | GI50 [3] | TGI [3] | GI50 [4] | TGI [4] | GI50 [5] | TGI [5] | GI50 [6] | TGI [6] | GI50 [7] | TGI [7] | GI50 [8] | GI50 [9] | TGI [9] | GI50 [10] | TGI [10] | TGI [8]
1 | CC(C)[C@]12O[C@H]1[C@@H]1O[C@]13[C@]1(O[C@H]1C[C@H]1c4c(C(=O)c5ccccc5)oc(OC(=O)c5ccccc5)c4CC[C@@]13C)[C@@H]2O | 0.0174 µM | 20.7 µM | 0.0418 µM | 3.42 µM | 0.0303 µM | 0.996 µM | 0.0282 µM | 0.115 µM | 0.0463 µM | 43.7 µM | 0.0196 µM | 0.0497 µM | 0.0204 µM | 15.3 µM | 0.0303 µM | 0.025 µM | 0.554 µM | 0.176 µM | 36.6 µM | –
2 | CN(C)/[N+]([O-])=N/Oc1cc(Nc2ccc(C(=O)O)cc2)c([N+](=O)[O-])cc1[N+](=O)[O-] | 26.7 µM | 62.4 µM | 29.8 µM | > 100 µM | 21.7 µM | 57.3 µM | 23.5 µM | 53.6 µM | 17 µM | 31.3 µM | 22.8 µM | 47.8 µM | 18 µM | 35.7 µM | 51.3 µM | 27.4 µM | 70.4 µM | 18.2 µM | 35.3 µM | > 100 µM
3 | O=[N+]([O-])c1ccc2[nH]cc(-c3c4ccccc4cc4[nH]c5ccc([N+](=O)[O-])cc5c34)c2c1 | 2.42 µM | 6.97 µM | 2.91 µM | 11.5 µM | 2.35 µM | 8.19 µM | 2 µM | 4.98 µM | 2.27 µM | 5.83 µM | 2.03 µM | 4.73 µM | 2.26 µM | 5.09 µM | 2.86 µM | 2.2 µM | 5.8 µM | 2.88 µM | 9.13 µM | > 100 µM
4 | CO/N=C1/c2cc(OC)ccc2-c2c(NOC)nc3ccccc3c21 | 14.3 µM | 31.3 µM | 53 µM | > 100 µM | 18 µM | 51 µM | 21.9 µM | 52.6 µM | 12.6 µM | 40.1 µM | – | – | 29.2 µM | > 100 µM | 38.7 µM | 35.1 µM | > 100 µM | 17.5 µM | 53 µM | > 100 µM
5 | Cc1ccc(/C=C(\C#N)n2nnc3cc(F)c(F)cc32)cc1 | 4.2 µM | 34.7 µM | 2.53 µM | > 100 µM | 4.17 µM | 44.9 µM | 2.59 µM | 10.3 µM | 3.33 µM | 12.8 µM | 3.28 µM | 13.5 µM | 3.32 µM | 15.6 µM | 0.391 µM | 6.45 µM | 63.2 µM | 4.58 µM | 20.9 µM | 13.9 µM
6 | C=C1C(=O)O[C@H]2[C@H]1CC/C(Cn1cc(CCC)nn1)=C\CC[C@@]1(C)O[C@@H]21 | 3.81 µM | 15.6 µM | 15.2 µM | 33.4 µM | 23.4 µM | 69.6 µM | 8.87 µM | 22.5 µM | 4.22 µM | 16.3 µM | 4.8 µM | 16.5 µM | 4.32 µM | 16 µM | 2.88 µM | 12.6 µM | 33.4 µM | 18.8 µM | 38.1 µM | 26.1 µM
7 | O=Cc1ccc(C(F)(F)F)cc1.[C-]#[O+].[C-]#[O+].[C-]#[O+].[Cr] | 30.2 µM | > 100 µM | 28.4 µM | > 100 µM | 24.6 µM | 75.9 µM | 18.5 µM | 54.3 µM | 25 µM | > 100 µM | 18.6 µM | 66.6 µM | 20.9 µM | 94.9 µM | 15.1 µM | 21.6 µM | 98.4 µM | 26.7 µM | 89.6 µM | 46.6 µM
8 | O=C1c2cc3c(cc2-c2c1c1ccc([N+](=O)[O-])cc1c(=O)n2CCCCl)OCO3 | 0.0707 µM | 0.234 µM | 0.0743 µM | – | > 100 µM | > 100 µM | 0.145 µM | – | – | > 24.9 µM | – | – | 0.122 µM | > 100 µM | 0.0158 µM | 0.409 µM | 9.09 µM | 0.138 µM | > 100 µM | 27.8 µM
9 | CCN1C(=O)N(c2c(F)c(OC)cc(OC)c2F)Cc2cnc3[nH]c(CN4CCOCC4)cc3c21 | 1.02 µM | 14.1 µM | 4.48 µM | > 100 µM | 1.82 µM | > 100 µM | 1.01 µM | 13.7 µM | 3.06 µM | 39.3 µM | 0.394 µM | 8.08 µM | 1.99 µM | > 100 µM | 1.62 µM | 0.8 µM | > 100 µM | – | – | 9.95 µM
10 | COc1ccc(Cc2ccccc2C(=O)O)c2ccccc12 | – | > 100 µM | – | > 100 µM | – | 57.8 µM | – | – | – | > 100 µM | – | > 100 µM | – | > 100 µM | – | – | > 100 µM | – | > 100 µM | > 100 µM
